The data set deals with patients with certain neurological and mental disorders. In words: Therapeutic effects of psilocybin in selected patients (patient experiences). The format is in vivo, human. Conditions: identified group of selected patients after intaking the psilocybin products. An excerpt: In one aspect, psilocybin is effective in treating and reducing ADHD, anxiety, ADD and the symptoms of Tourette Syndrome. […] Some patients suffered significant side effects when taking prescription drugs for the respective indications.

The structures appear in SMILES notation.

In the case of `CN(C)CCc1c[nH]c2cccc(OP(=O)(O)O)c12` [Psilocybin, psilocybin], the side effects entry was “minimal side effects”.

Source of the values: patent US20250255890A1, “PSILOCYBIN CULTIVATION, EXTRACTION, AND THERAPEUTIC USE” (Golden Fleece Research Group Inc., priority 2024, published 2025).
